According to ChEMBL document CHEMBL3769391, “Identification of a new cyathane diterpene that induces mitochondrial and autophagy-dependent apoptosis and shows a potent in vivo anti-colorectal cancer activity” (Eur J Med Chem, 2016):
Activity calls are given as the source filed them. No cut-off for these calls is given here.

How the values were obtained:
HCT-116 [1] = test: Induction of apoptosis in Bax deficient human HCT116 cells assessed as early apoptotic cells at 15 uM after 24 hrs by Annexin V-FITC/propidium iodide staining based flow cytometry (reference value: 0.85 to 1.13%); format: functional
HCT-116 [2] = test: Induction of apoptosis in human HCT116 cells assessed as viable cells at 5 uM after 24 hrs by Annexin V-FITC/propidium iodide staining based flow cytometry (reference value: 93.64%); format: functional; settings: HCT-116, 24 h, read-out: Activity
HCT-116 [3] = test: Induction of apoptosis in human HCT116 cells assessed as early apoptotic cells at 5 uM after 24 hrs by Annexin V-FITC/propidium iodide staining based flow cytometry (reference value: 1.06 to 2.2%); format: functional
HCT-116 [4] = test: Induction of apoptosis in human HCT116 cells assessed as late apoptotic cells at 5 uM after 24 hrs by Annexin V-FITC/propidium iodide staining based flow cytometry (reference value: 3.73 to 4.54%); format: functional
HCT-116 [5] = test: Induction of apoptosis in human HCT116 cells assessed as early apoptotic cells at 7.5 uM after 24 hrs by Annexin V-FITC/propidium iodide staining based flow cytometry (reference value: 1.06%); format: functional
HCT-116 [6] = test: Induction of apoptosis in human HCT116 cells assessed as late apoptotic cells at 7.5 uM after 24 hrs by Annexin V-FITC/propidium iodide staining based flow cytometry (reference value: 4.54%); format: functional
HCT-116 [7] = test: Induction of apoptosis in human HCT116 cells assessed as early apoptotic cells at 10 uM after 24 hrs by Annexin V-FITC/propidium iodide staining based flow cytometry (reference value: 1.06%); format: functional
HCT-116 [8] = test: Induction of apoptosis in human HCT116 cells assessed as early apoptotic cells at 10 uM after 12 hrs by Annexin V-FITC/propidium iodide staining based flow cytometry (reference value: 1.13%); format: functional
HCT-116 [9] = test: Induction of apoptosis in human HCT116 cells assessed as late apoptotic cells at 10 uM after 12 hrs by Annexin V-FITC/propidium iodide staining based flow cytometry (reference value: 3.37%); format: functional
SW480 = test: Induction of apoptosis in human SW480 cells assessed as apoptotic cells at 10 uM after 24 hrs by Annexin V-FITC/propidium iodide staining based flow cytometry; format: functional, cell-based
HCT-116 [10] = test: Induction of apoptosis in human HCT116 cells assessed as caspase activation at 5 uM by CaspACEFITC-VAD-FMK staining based flow cytometry; format: functional, cell-based; settings: TDE = time-dependent effect
HCT-116 [11] = test: Induction of apoptosis in human HCT116 cells assessed as late apoptotic cells at 5 uM after 24 hrs by Annexin V-FITC/propidium iodide staining based flow cytometry in presence of DTT (reference value: 3.73%); format: functional
[12] = biological target: c-Jun N-terminal kinase, JNK (Homo sapiens) (UniProt P45983+P53779+P45984); test: Induction of JNK phosphorylation in human HCT116 cells at 5 uM after 4 hrs by Western blot analysis; format: cell-based; settings: HCT-116
HCT-116 [13] = test: Induction of apoptosis in human HCT116 cells assessed as decrease in Bcl-2 expression at 5 uM after 6 to 24 hrs by Western blot analysis; format: functional, cell-based
HCT-116 [14] = test: Induction of apoptosis in human HCT116 cells assessed as increase in BimL expression at 5 uM after 6 to 24 hrs by Western blot analysis; format: functional, cell-based
HCT-116 [15] = test: Induction of apoptosis in human HCT116 cells assessed as changes in Bax expression at 5 uM after 6 to 24 hrs by Western blot analysis; format: functional, cell-based
HCT-116 [16] = test: Induction of apoptosis in human HCT116 cells assessed as changes in p53 expression at 5 uM after 6 to 24 hrs by Western blot analysis; format: functional, cell-based
HCT-116 [17] = test: Induction of apoptosis in human HCT116 cells assessed as changes in Bcl-X(L) expression at 5 uM after 6 to 24 hrs by Western blot analysis; format: functional, cell-based
HCT-116 [18] = test: Induction of apoptosis in Bax deficient human HCT116 cells assessed as late apoptotic cells at 5 uM after 24 hrs by Annexin V-FITC/propidium iodide staining based flow cytometry (reference value: 1.5%); format: functional
HCT-116 [19] = test: Induction of apoptosis in Bax deficient human HCT116 cells assessed as late apoptotic cells at 10 uM after 24 hrs by Annexin V-FITC/propidium iodide staining based flow cytometry (reference value: 1.5%); format: functional
HCT-116 [20] = test: Induction of apoptosis in Bax deficient human HCT116 cells assessed as early apoptotic cells at 15 uM after 24 hrs by Annexin V-FITC/propidium iodide staining based flow cytometry in presence of NAC (reference value: 0.85%); format: functional
HCT-116 [21] = test: Induction of apoptosis in Bax deficient human HCT116 cells assessed as late apoptotic cells at 15 uM after 24 hrs by Annexin V-FITC/propidium iodide staining based flow cytometry in presence of NAC (reference value: 1.56%); format: functional
HCT-116 [22] = test: Induction of autophagy in human HCT116 cells assessed as increase in LC3-2 level at 5 uM by Western blot analysis; format: functional, cell-based
HCT-116 [23] = test: Induction of apoptosis in human HCT116 cells assessed as increase in ATG5 expression at 5 uM after 4 to 12 hrs by Western blot analysis; format: functional, cell-based
HCT-116 [24] = test: Induction of apoptosis in ATG5 scramble human HCT116 cells assessed as late apoptotic cells at 5 uM after 24 hrs by Annexin V-FITC/propidium iodide staining based flow cytometry (reference value: 3.35%); format: functional
HCT-116 [25] = test: Induction of apoptosis in ATG5 knockdown human HCT116 cells assessed as early apoptotic cells at 5 uM after 24 hrs by Annexin V-FITC/propidium iodide staining based flow cytometry (reference value: 1.13%); format: functional
HCT-116 [26] = test: Induction of apoptosis in ATG5 knockdown human HCT116 cells assessed as late apoptotic cells at 5 uM after 24 hrs by Annexin V-FITC/propidium iodide staining based flow cytometry (reference value: 2.01%); format: functional
HCT-116 [27] = test: Induction of apoptosis in human HCT116 cells assessed as ATG5 cleavage by Western blot analysis in presence of chloroquine; format: functional, cell-based
HCT-116 [28] = test: Induction of apoptosis in human HCT116 cells assessed as ATG5 cleavage by Western blot analysis in presence of Z-VAD-FMK; format: functional, cell-based
[29] = Antitumor activity against human HCT116 cells xenografted in immune deficient nude BALB/c mouse assessed as tumor growth inhibition at 10 mg/kg, ip administered every other day for 2 weeks measured after 2 weeks post last dose relative to control; format: functional; settings: HCT-116, ip, 336 h, read-out: TGI
Mus musculus [30] = test: Toxicity in immune deficient nude BALB/c mouse xenografted with Bax deficient human HCT116 cells assessed as discomfort behavioral changes at 5 and 10 mg/kg, ip administered every other day for 2 weeks measured during compound dosing; format: organism-based, HCT-116; settings: in vivo, 336 h
Mus musculus [31] = test: Hepatotoxicity in immune deficient nude BALB/c mouse xenografted with Bax deficient human HCT116 cells assessed as changes in total protein level at 5 and 10 mg/kg, ip administered every other day for 2 weeks measured during compound dosing; format: toxicity, organism-based, HCT-116; settings: in vivo, 336 h
Mus musculus [32] = test: Hepatotoxicity in immune deficient nude BALB/c mouse xenografted with Bax deficient human HCT116 cells assessed as changes in albumin level in serum at 5 and 10 mg/kg, ip administered every other day for 2 weeks measured during compound dosing; format: toxicity, organism-based, HCT-116; settings: in vivo, 336 h

CO[C@@H]1C(C=O)=CC[C@@H]2C3=C(C(C)C)CC[C@]3(C)CC[C@@]2(C)[C@H]1O
Activity (HCT-116 [1]): 47.04% | viability at 5 µM (HCT-116 [2]): 56.3% | Activity (HCT-116 [3]): 24.72% | Activity (HCT-116 [4]): 13.06% | Activity (HCT-116 [5]): 51.38% | Activity (HCT-116 [6]): 20.8% | Activity (HCT-116 [7]): 59.5% | Activity (HCT-116 [8]): 30.19% | Activity (HCT-116 [9]): 22.01% | Activity (SW480): Active | Activity (HCT-116 [10]): tde | Activity (HCT-116 [11]): 13.34% | Activity [12]: Active | Activity (HCT-116 [13]): Active | Activity (HCT-116 [14]): Active | Activity (HCT-116 [15]): inactive | Activity (HCT-116 [16]): inactive | Activity (HCT-116 [17]): inactive | Activity (HCT-116 [18]): 4.14% | Activity (HCT-116 [19]): 17.64% | Activity (HCT-116 [20]): 1.42% | Activity (HCT-116 [21]): 2.07% | Activity (HCT-116 [22]): Active | Activity (HCT-116 [23]): Active | Activity (HCT-116 [24]): 5.53% | Activity (HCT-116 [25]): 2.36% | Activity (HCT-116 [26]): 1.85% | Activity (HCT-116 [27]): inactive | Activity (HCT-116 [28]): inactive | inhibition in vivo at 10 mg/kg [29]: 62.2% | Activity (Mus musculus [30]): Non-toxic | Activity (Mus musculus [31]): Non-toxic | Activity (Mus musculus [32]): Non-toxic
